17 molecules from US6362175B1, “Porphyrin compounds for imaging tissue oxygen” (The Trustees of the University of Pennsylvania, priority 1991, dated 2002) can be followed below.

Holding throughout (format): physicochemical
Data set [1] is described as follows: Phosphorescence lifetime at zero oxygen, light guide phosphorimeter. The text has this: (§1) Solvents for phosphorescence measurements were degassed by three freeze-pump-thaw cycles and stored in a vacuum over sodium benzophenone ketyl (THF) or 4 Å molecular sieves (DMF). The solvents were vacuum transferred immediately prior to the phosphorescence measurements and samples were sealed under high vacuum.
(§2) An enzymatic system (glucose-glucose oxidase-catalase) was used for deoxygenation of aqueous solutions and N2-O2 gas mixtures containing either 2.89% of oxygen or 20% oxygen (air) were used for calibration and measurements of the quenching constants.
(§3) Absorption spectra were recorded on a Beckman DU-64 spectrophotometer. Emission spectra (fluorescence and phosphorescence) were recorded using an AMINCO SPF-500C spectrofluorimeter. ^1H NMR spectra were recorded using a Brucker 300 MHz instrument. Phosphorescence lifetime measurements were performed using a light guide phosphorimeter designed by applicants. HPLC analysis of reaction mixtures was carried out on a SpectraPhysics 8800 gradient system, using an Adsorbosphere HS C4 100×4.6 mm column and methanol:water mixture as a mobile phase.

Data set [2] can be described thus: Phosphorescence spectra of deoxygenated samples. To be noted: solvent THF, 25 °C. The protocol: as §1, §3
Phosphorescence of a series of metal-TBP compounds was detected using constant irradiation of samples with light wavelengths at their Q and Soret bands. To observe the phosphorescence phenomena and to record phosphorescence spectra, the samples were intensively deoxygenated. Accordingly, highly degassed dimethylformamide (DMF) or THF were used as solvents. The phosphorescence spectra of LuTPhTBP and PdTPhTBP are depicted in FIGS. 5 and 6, respectively.

A short description of data set [3]: Absorption spectra (Soret and Q bands). The protocol:
as §3

Data set [4] in a line: Quenching of phosphorescence by oxygen (Stern-Volmer quenching constant).
Source text: Phosphorescence of certain chemical compounds is quenched by oxygen according to the Stern-Volmer relationship which is stated as follows:
where T0 and T are the phosphorescence lifetimes in the absence of oxygen, PO2 is the oxygen pressure for a lifetime of T, and kQ is the quenching constant. The constant kQ is related to the frequency of collisions between the excited triplet state molecule and molecular oxygen and the probability of energy transfer occurring when these molecules collide.
as §2, §3

Setting [5] is: solvent DMF, TBP/TPhTBP compounds.
The mark [6] stands for this setting: Phy. sol. (aqueous, pH 7.0), 38 °C.
The mark [7] stands for this setting: solvent DMF, TPhTNP compounds, average position of split Soret band.
Where [8] appears, read: Phy. sol. adjusted to pH 7.4, 38 °C.

As to `c1ccc(C2=C3N=C(C(c4ccccc4)=c4c5ccccc5c5[n]4[Pd][n]4c2c2ccccc2c4C(c2ccccc2)=C2N=C(C=5c4ccccc4)c4ccccc42)c2ccccc23)cc1` [PdTPhTBP, palladium meso-tetraphenyltetrabenzoporphyrin], the “Phosphorescent lifetime at zero-oxygen concentration” value (shortened to “Phosphorescent lifetime”) in data set [1] (solvent THF, 25 °C) was 127 μs. In data set [2], this molecule showed a Phosphorescence maximum of 784 nm. Moreover, in data set [3] (solvent CHCl3), the Q-band was found to be 610 nm and the Soret band was 420 nm.

Take `c1ccc(C2=C3N=C(C(c4ccccc4)=c4c5ccccc5c5[n]4[Pt][n]4c2c2ccccc2c4C(c2ccccc2)=C2N=C(C=5c4ccccc4)c4ccccc42)c2ccccc23)cc1` [PtTPhTBP]: the Q-band in data set [3] (solvent DMF) stood at 630 nm. Further, the Soret band in data set [3] (setting [5]) amounted to 437 nm.

In the case of `O=S(=O)(N[C@H]1C(O)O[C@H](CO)[C@@H](O)[C@@H]1O)c1ccc(C2=C3N=C(C(c4ccc(S(=O)(=O)N[C@H]5C(O)O[C@H](CO)[C@@H](O)[C@@H]5O)cc4)=c4c5ccccc5c5[n]4[Pd][n]4c2c2ccccc2c4C(c2ccc(S(=O)(=O)N[C@H]4C(O)O[C@H](CO)[C@@H](O)[C@@H]4O)cc2)=C2N=C(C=5c4ccc(S(=O)(=O)N[C@H]5C(O)O[C@H](CO)[C@@H](O)[C@@H]5O)cc4)c4ccccc42)c2ccccc23)cc1` (stereo partly drawn) [PdTPhTBP (glucosamine)4], in data set [1] (setting [6]), the “Phosphorescent lifetime” value is listed as 431 μs. Also, the “Quenching constant at a temperature of 38° C.” value (“Quenching constant” for short) in data set [4] (setting [6]) was 194 Torr^−1s^−1. Further, in data set [3] (solvent water), the Q-band is given as 615 nm and the Soret band was determined as 409 nm.

Regarding `O=C(O)CNS(=O)(=O)c1ccc(C2=C3N=C(C(c4ccc(S(=O)(=O)NCC(=O)O)cc4)=c4c5ccccc5c5[n]4[Pd][n]4c2c2ccccc2c4C(c2ccc(S(=O)(=O)NCC(=O)O)cc2)=C2N=C(C=5c4ccc(S(=O)(=O)NCC(=O)O)cc4)c4ccccc42)c2ccccc23)cc1` [PdTPhTBP (glyc)4], the “Phosphorescent lifetime” value in data set [1] (setting [6]) is reported as 408 μs. The “Quenching constant” value in data set [4] (setting [6]) came to 186 Torr^−1s^−1. Moreover, in data set [3] (solvent water), the Q-band is listed as 620 nm and the Soret band turned out to be 421 nm.

Consider “lutetium (Lu) tetraphenyltetranaphthoporphyrin [LuTPhTNP]”, for which the “Phosphorescent lifetime” value in data set [1] (solvent DMF, 25 °C) was found to be 172 μs.

In turn, `[OH][Lu]1[n]2c3c4cc5ccccc5cc4c2C(c2ccccc2)=C2N=C(C(c4ccccc4)=c4c5cc6ccccc6cc5c([n]41)=C(c1ccccc1)C1=NC(=C3c3ccccc3)c3cc4ccccc4cc31)c1cc3ccccc3cc12` [Lu(OH)TPhTNP] came in with a Q-band in data set [3] (solvent DMF) of 709 nm. The Soret band in data set [3] (setting [7]) is given as 440 nm.

For the molecule `c1ccc(C2=C3N=C(C(c4ccccc4)=c4c5cc6ccccc6cc5c5[n]4[Pd][n]4c2c2cc6ccccc6cc2c4C(c2ccccc2)=C2N=C(C=5c4ccccc4)c4cc5ccccc5cc42)c2cc4ccccc4cc23)cc1` [PdTPhTNP], in data set [1] (solvent THF, 25 °C), the “Phosphorescent lifetime” value worked out at 165 μs. In addition, the Q-band in data set [3] (solvent DMF) turned out to be 694 nm. In addition, in data set [3] (setting [7]), the Soret band came to 415 nm.

In data set [3] (solvent DMF), `c1ccc(C2=C3N=C(C(c4ccccc4)=c4c5cc6ccccc6cc5c5[n]4[Pt][n]4c2c2cc6ccccc6cc2c4C(c2ccccc2)=C2N=C(C=5c4ccccc4)c4cc5ccccc5cc42)c2cc4ccccc4cc23)cc1` [PtTPhTNP] gave a Q-band of 700 nm. In data set [3] (setting [7]), this molecule had a Soret band of 425 nm.

Consider `[OH][Lu]1[n]2c3c4ccccc4c2C(c2ccccc2)=C2N=C(C(c4ccccc4)=c4c5ccccc5c([n]41)=C(c1ccccc1)C1=NC(=C3c3ccccc3)c3ccccc31)c1ccccc12` [Lu(OH)TPhTBP, lutetium (hydroxy) meso-tetraphenyltetrabenzoporphyrin], for which, in data set [3] (solvent Acetone), the Q-band was 628 nm and the Soret band was 423 nm.

In the case of `[OH][Y]1[n]2c3c4ccccc4c2C(c2ccccc2)=C2N=C(C(c4ccccc4)=c4c5ccccc5c([n]41)=C(c1ccccc1)C1=NC(=C3c3ccccc3)c3ccccc31)c1ccccc12` [Y(OH)TPhTBP], in data set [3] (solvent Acetone), the Q-band amounted to 630 nm and the Soret band is given as 431 nm.

In data set [3] (solvent Acetone), `c1ccc(C2=C3N=C(C(c4ccccc4)=c4c5ccccc5c5[n]4[Zn][n]4c2c2ccccc2c4C(c2ccccc2)=C2N=C(C=5c4ccccc4)c4ccccc42)c2ccccc23)cc1.c1ccncc1.c1ccncc1` [ZnTPhTBP (Pyridine)2] yielded a Q-band of 625 nm and a Soret band of 428 nm.

The molecule `[Zn].c1ccc2c(c1)-c1cc3[nH]c(cc4nc(cc5[nH]c(cc-2n1)c1ccccc51)-c1ccccc1-4)c1ccccc31` [ZnTBP (Pyridine)2, zinc tetrabenzoporphyrin] came in with a Q-band in data set [3] (solvent DMF) of 624 nm. The molecule further returned a Soret band in data set [3] (setting [5]) of 425 nm.

In the case of `c1ccc(C2=C3N=C(C(c4ccccc4)=c4c5ccccc5c5[n]4[Sn][n]4c2c2ccccc2c4C(c2ccccc2)=C2N=C(C=5c4ccccc4)c4ccccc42)c2ccccc23)cc1` [SnTPhTBP], in data set [3] (solvent Acetone), the Q-band is recorded as 642 nm and the Soret band is 438 nm.

In data set [3] (solvent Acetone), `c1ccc(C2=C3N=C(C(c4ccccc4)=c4c5ccccc5c5[n]4[Pb][n]4c2c2ccccc2c4C(c2ccccc2)=C2N=C(C=5c4ccccc4)c4ccccc42)c2ccccc23)cc1` [PbTPhTBP] had a Q-band of 663 nm and a Soret band of 487 nm.

With `[OH][La]1[n]2c3c4cc5ccccc5cc4c2C(c2ccccc2)=C2N=C(C(c4ccccc4)=c4c5cc6ccccc6cc5c([n]41)=C(c1ccccc1)C1=NC(=C3c3ccccc3)c3cc4ccccc4cc31)c1cc3ccccc3cc12` [La(OH)TPhTNP], the Q-band in data set [3] (solvent DMF) is recorded as 708 nm. This molecule also registered a Soret band in data set [3] (setting [7]) of 440 nm.

Consider `O=C(O)Cc1ccc(NS(=O)(=O)c2ccc(C3=C4N=C(C(c5ccc(S(=O)(=O)Nc6ccc(CC(=O)O)cc6)cc5)=c5c6ccccc6c6[n]5[Pd][n]5c3c3ccccc3c5C(c3ccc(S(=O)(=O)Nc5ccc(CC(=O)O)cc5)cc3)=C3N=C(C=6c5ccc(S(=O)(=O)Nc6ccc(CC(=O)O)cc6)cc5)c5ccccc53)c3ccccc34)cc2)cc1` [PdTPhTBP (sulfonamide)4], for which, in data set [1] (setting [8]), the “Phosphorescent lifetime” value is on record as 377 μs. Besides, the “Quenching constant” value in data set [4] (setting [8]) amounted to 185 Torr^−1s^−1. Moreover, in data set [3] (solvent water), the Q-band is reported as 630 nm and the Soret band was 415 nm.

In the case of `[OH][La]1[n]2c3c4ccccc4c2C(c2ccccc2)=C2N=C(C(c4ccccc4)=c4c5ccccc5c([n]41)=C(c1ccccc1)C1=NC(=C3c3ccccc3)c3ccccc31)c1ccccc12` [La(OH)TPhTBP], the Q-band in data set [3] (solvent DMF) amounted to 633 nm. Further, the Soret band in data set [3] (setting [5]) came to 432 nm.
